Source: US9249086B2, “Carboxylic acid ALA esters” (Photocure ASA, priority 2012, dated 2016)
Where a name gives a salt, the structure may show the parent alone.

How the values were obtained:
[1] = system: sebaceous glands and epidermis of minipig skin; assay: Minipig skin biopsies, fluorescence microscopy; assay type: in vivo, minipigs; settings: minipig skin biopsy sections; 15% cream
Procedure: The cream was administered as described above. At t=0 (i.e. prior to administration of the cream), 1.5, 5 and 12 hours, biopsy samples were taken using a 10 mm biopsy punch (AcuPunch 10 mm, Acuderm, USA). The samples were taken and handled in a minimally illuminated room. Each sample was trimmed free of any subcutaneous fatty tissue and thereafter cut in half. Each sample was then snap frozen in liquid nitrogen, in an aluminium foil bag or similar, and transferred to a −80° C. freezer.
The biopsy samples were sectioned at 10 μm and again care was taken to minimize the surrounding light. When sebaceous glands and epidermis could be identified, a series of 3 consecutive sections was prepared from each sample. The sections were examined within 15 minutes in a Leica DMRXE microscope equipped for both ordinary light microscopy and fluorescence microscopy. Epidermis and sebaceous glands were localized using conventional light microscopy. This was carried out within 5 seconds and then the light source was changed to a mercury lamp/fluorescence with filter set; excitation filter 390-447 nm, beam splitter 455 nm and an emission filter >600 nm. The sections were immediately photographed. Without moving the specimen the light source was changed back to conventional light microscopy and the sections were photographed in exactly the same position as for the fluorescence microscopy. As well as the epidermis and sebaceous glands, the dermis was analysed and if fluorescence was found also photographed. To further investigate localisation of all analyzed structures, the sections were stained with hematoxylin/eosin.
Image analysis was performed using the software program, Image J (version Fiji-win32.exe). With this program, average fluorescence intensity per pixel was measured from the saved images.

back skin of minipigs = assay: In vivo skin fluorescence study in minipigs (FluoDerm); settings: 15% cream in Unguentum Merck, 0.5 g per site, 1.5, 5 and 12 hours after application, FIG. 1
Procedure: Compound 1c (carboxymethyl 5-amino-4-oxopentanoate hydrobromide, prepared according to Example 1c) was formulated as a cream in Unguentum Merck (15%, 150 mg/g; 0.56 mmol).
The cream was administered to the back skin of minipigs. Prior to application of the cream, the surrounding skin was cleaned with sterile water and gauze, if necessary. 0.5 g cream was applied to each test site (50 mm in diameter) resulting in a homogenous cream layer and then covered with a dressing (Tegaderm®). The gauze Vet-Flex® was used to keep the dressing in place.
Skin fluorescence at 630 nm was assessed prior to cream application and at 1.5, 5 and 12 hours after cream application using the FluoDerm instrument (DiaMedico ApS, Denmark) according to the manufacturers instructions. The FluoDerm instrument is a hand-held device for objective real-time in vivo measuring of average fluorescence over a circular field with diameter 40 mm. Measurements were electronically corrected for the actual ambient light.

[2] = system: Salmonella typhimurium, TA98 and TA100; assay: Ames test (mutagenic and photomutagenic potential); assay type: cell-based; settings: absence and presence of S-9, absence and presence of visible light
Source text: The Ames test (see B. N. Ames et al, Methods for detecting carcinogens and mutagens with the Salmonella/mammalian-microsome mutagenicity test. Mutation Research 31, 347-364, 1975) is a standard test method approved by the regulatory authorities to detect an ability of a test chemical compound to induce mutation in certain bacterial strains. If a test chemical compound induces such mutations, it cannot be used in a pharmaceutical compound for use in humans.
The objective of this study was to evaluate the mutagenic potential and photomutagenic potential of compound 1c, carboxymethyl 5-amino-4-oxopentanoate hydrobromide (prepared according to Example 1c) by examining its ability to revert two histidine-requiring strains of Salmonella typhimurium, TA98 and TA100, in the absence and presence of a rat liver metabolising system (S-9) and also in the absence and presence of visible light. The latter was assessed since compound 1c is taken up by the bacteria cells and converted into a photosensitiser, which, upon illumination of said cells, might induce mutagenic products.

[3] = system: S. aureus strain DSM 20231 (ATCC 12600); assay: Dark toxicity in bacteria; assay type: cell-based, Staphylococcus aureus; settings: 0.001, 0.1, 1 and 10 mM, plate not illuminated
Procedure: S. aureus strain DSM 20231 (ATCC 12600). The bacterial strain was grown for 24 hours on heart infusion agar (Difco) at 35-37° C. prior to carrying out the experiment and re-suspended in 20 mM PIPES, pH 7.2-7.4 at a concentration corresponding to a McFarland 0.5 standard (approximately 1-5×10^8 CFU/mL). In order to ensure viable cell cultures and to check the inoculum size and purity, bacterial stocks were made immediately prior to experimentation and the CFU/mL determined in a standard colony assay.
“Dark toxicity”, i.e. the toxic effect of the compounds in the absence of light (and therefore unrelated to PDT effects), can include bacteria cell death and therefore can interfere with the accurate measurement of the PDT effect, which also results in bacterial cell death. Dark toxicity can be measured by determining the toxicity of each compound under the same experimental conditions, but in the absence of light, thereby avoiding any PDT effect. The use of the compounds of the invention under conditions that produce low dark toxicity is advantageous because dark toxicity effects could also include harming or killing non-target cells and interfering with the PDT treatment itself. […]
Dark toxicity was determined as described in the paragraph “PDT-treatment” below, except that the plate was not illuminated. […]

[4] = system: Rat bladder cells (AY-27); assay: Cytotoxicity in rat bladder cells (MTT test); assay type: cell-based; settings: AY-27 cells; for Cytotoxicity: 2 hours, MTT test
Procedure: All experiments were performed in 4-5 replicates under subdued light. For concentrations of compounds 1 mM, the cytotoxicity was assessed with MTT test. Exponentially growing cells were incubated with freshly prepared solution or medium as described above for 2 hours in 96-well plates. After the incubation, the solutions or the medium was discarded and the cells were washed twice with PBS. Then 50 μl of MTT (2.5 mg·ml^−1) was added to 150 μl of RPMI serum-free medium per well and incubated for 3 hours. Absorbance was measured by dissolving formazan crystals with 50 μl of DMSO. The absorbance was normalized to that of control cells.

[5] = system: Rat bladder cells (AY-27); assay: PpIX measurements in rat bladder cells; assay type: cell-based; settings: AY-27 cells; for PpIX Mean ± SD: 2 hours incubation
Procedure: Rat bladder cells (AY-27) were grown in the culture medium (RPMI 1640 supplemented with 9% fetal calf serum 1% L-glutamin (200 mM) and 1% penicillin (10 000 UI), streptomycin (10 000 μg·mL^−1). Exponentially growing cells (AY-27) were incubated for 2 hours with freshly prepared solutions of 0.8 mM HAL (which is a tenth of the concentration which is used for bladder cancer […]). Control cells received serum-free medium without any test or reference compounds. After the incubation, the solutions or the medium was discarded and the cells were rinsed 2 times with ice-cooled PBS. PpIX was extracted from cells using an ice-cold lysis extraction mixture, consisting of ethanol/DMSO/acetic acid (80/20/1, v/v/v). The cell lysate was centrifuged (400 g, 10 min, 2° C.), the pellet was grinded and the suspension was sonicated for 15 min before being centrifuged. The fluorescence signal of PpIX was measured with a Perkin-Elmer LS 55 spectrometer (Perkin-Elmer, Beaconsfield, UK) and expressed as a function of the protein content. The fluorescence intensity at 635 nm in each sample was reported on a calibration curve established with PpIX (Sigma-Aldrich, France) diluted in extraction mixture as described above. The PpIX concentration was expressed relative to the protein content. Briefly, a lysis buffer mixture (1 mM EDTA, 1% Triton X-100 and 10 mM Tris-HCl; pH 7.4) was added to frozen cell dishes together with 500 mM PMSF (anti-protease) solution in DMSO. Lysates were kept on ice for 30 minutes and centrifuged at 4° C. for 20 minutes at 15 000 g. The protein content was then measured against a BSA calibration curve by a Biorad DC protein assay kit (Bio-Rad, France) based on a method developed by Lowry.

[6] = system: skin of healthy nude mice; assay: In vivo skin fluorescence study in healthy nude mice; settings: cream in Unguentum Merck, equimolar (16-19%), about 100 μl on back, 6 hours in the dark, excitation 365 and 405 nm, mean of 5 mice
Procedure: A study was carried out to assess the potential of the compounds of the invention as precursors for photosensitisers for skin application. As such, the compounds of the invention need to be able to penetrate the skin, to be taken up by the cells in the skin and to be converted to photosensitisers. The result of this process can be visualized by exposing the skin to light which excites the photosensitiser molecules and to determine the amount of energy which is released in the form of fluorescence when the excited photosensitiser molecules relax to an energetically lower state.
Compounds 2, 4 and 7 above were formulated as creams in Unguentum Merck. The compounds were tested in equimolar amounts:
3 groups of mice (5 mice/group, each mouse of one group receiving the same cream formulation) were included in the experiment. About 100 μl of cream formulation was applied onto the back of one mouse. The mice were kept in the dark for 6 hours prior to skin fluorescence measurement to avoid photobleaching. For assessment of skin fluorescence, a fluorescence camera (Medeikonos PDD/PDT, Medeikonos AB, Gothenburg, Sweden) was used and images of the back of each mouse were taken. Excitation was carried out at wavelengths of 365 and 405 nm and 2 s illumination time. Each image was calibrated to a fluorescence standard (Uranyl Standard, J&M, Analytische Mess- and Regeltechnik GmbH, Hamburg, Germany) and adjusted for background fluorescence. The mean amount of skin fluorescence in each image was calculated by means of image analyzer-software (MatLab 7.2.0.232, Math-Works, Natick, Mass., USA) and the mean amount of skin fluorescence for each group of mice (5 mice/compound) was calculated.

NCC(=O)CCC(=O)OCC(=O)O [Compound 1c, carboxymethyl 5-amino-4-oxopentanoate hydrobromide]
Selectivity for sebaceous glands [1]: shows a selectivity for sebaceous glands
Time after cream application at which fluorescence was also seen in the epidermis [1]: 5 h
Time after cream application at which fluorescence was seen in the sebaceous glands [1]: 1.5 h
Skin fluorescence at 630 nm over time (back skin of minipigs): skin fluorescence increased with time
Induction of mutation or photomutation [2]: did not induce mutation or photomutation
Dark toxicity [3]: No dark toxicity was observed

NCC(=O)CCC(=O)OCCC(=O)O [Compound 4, 2-carboxyethyl 5-amino-4-oxopentanoate hydrobromide]
Cytotoxicity ([4]; 1 mM): 3 % of control
Cytotoxicity ([4]; 5 mM): 14 % of control
Cytotoxicity ([4]; 15 mM): 39 % of control
Cytotoxicity at higher concentration ([4]; concentration higher than 5 mM): cytotoxicity was induced
PpIX Mean ± SD ([5]; 1 mM): 45 ± 8 pmoles/mg protein
PpIX Mean ± SD ([5]; 5 mM): 141 ± 24 pmoles/mg protein
PpIX Mean ± SD ([5]; 15 mM): 180 ± 94 pmoles/mg protein
PpIX concentration compared to HAL (0.8 mM) ([5]; compound at 1 mM): significantly lower compared to HAL
PpIX concentration compared to HAL (0.8 mM) ([5]; compound at 5 mM): About half of the PpIX concentration of HAL
Dark toxicity [3]: No dark toxicity was observed
Skin fluorescence [6]: 8473 a.u.
